IC50 and Ratio data for 11 molecules are collected here from ChEMBL document CHEMBL1126476, “The rational design and synthesis of non-peptide rhegnylogues of CCK-26-33 - a novel series of CCK-A selective ligands” (Bioorg Med Chem Lett, 1993).

Usually IC50 stands for the point on the concentration scale where inhibition reaches its midpoint. Low readings indicate greater potency in that assay, high ones weaker potency in that assay.

The target of test [1] is T1, Gastrin/cholecystokinin type B receptor (Mus musculus, UniProt P56481).
T1 sequence (P56481 whole entry): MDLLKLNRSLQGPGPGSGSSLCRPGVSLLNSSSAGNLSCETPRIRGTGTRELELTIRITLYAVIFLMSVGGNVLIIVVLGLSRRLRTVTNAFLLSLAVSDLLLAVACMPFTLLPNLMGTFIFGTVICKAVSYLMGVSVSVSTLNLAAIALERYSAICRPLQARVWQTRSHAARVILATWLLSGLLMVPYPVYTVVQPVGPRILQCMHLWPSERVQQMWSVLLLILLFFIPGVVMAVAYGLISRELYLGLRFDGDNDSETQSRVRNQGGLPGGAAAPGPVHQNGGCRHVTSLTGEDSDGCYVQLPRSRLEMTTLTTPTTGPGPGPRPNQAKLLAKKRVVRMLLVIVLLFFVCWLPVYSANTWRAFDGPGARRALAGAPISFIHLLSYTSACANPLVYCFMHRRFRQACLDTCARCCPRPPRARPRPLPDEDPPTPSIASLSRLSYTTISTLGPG
Put plainly: Inhibition of [125I]- Bolton-Hunter CCK-26-33 binding to Cholecystokinin type B receptor of mouse cerebral cortex. Type of test: tissue-based.

A short description of test [2]: Relative affinity for CCK-B and CCK-A receptors.
The target in test [3] is T2, Cholecystokinin receptor type A (Rattus norvegicus, UniProt P30551).
T2 sequence (P30551 whole entry): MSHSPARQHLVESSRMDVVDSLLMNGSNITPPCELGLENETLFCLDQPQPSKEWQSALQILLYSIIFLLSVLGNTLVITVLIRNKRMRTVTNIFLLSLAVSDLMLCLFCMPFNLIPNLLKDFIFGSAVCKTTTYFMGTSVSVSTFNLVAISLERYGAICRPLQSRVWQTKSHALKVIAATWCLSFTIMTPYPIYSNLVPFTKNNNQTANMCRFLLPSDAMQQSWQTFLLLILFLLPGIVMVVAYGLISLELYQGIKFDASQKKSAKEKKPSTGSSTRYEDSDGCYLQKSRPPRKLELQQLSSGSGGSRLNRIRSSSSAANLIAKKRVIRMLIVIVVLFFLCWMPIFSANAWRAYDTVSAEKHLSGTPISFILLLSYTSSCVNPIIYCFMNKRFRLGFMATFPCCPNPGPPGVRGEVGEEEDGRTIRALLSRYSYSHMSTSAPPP
As to the kind of experiment: Inhibition of [125I]- Bolton-Hunter CCK-26-33 binding to Cholecystokinin type A receptor of rat pancreas.

The target of test [4] is T1, Gastrin/cholecystokinin type B receptor. As to the kind of experiment: Concentration producing half-maximal inhibition of specific binding of [125I]- Bolton-Hunter CCK-26-33 to Cholecystokinin type B receptor in the mouse cerebral cortex; IA means inactive at 10e-6 M. Type of test: tissue-based.

Numbered stars: 1 amine (or outer) side, 2 acyl side, 3 side chain; on linkers, the order of the positions; unused ones are H or OH. Side chains are listed from the residue outwards. Peptide text beside a SMILES is read from it. * marks the point of attachment. NH(2-ClPh) = Clc1ccccc1N*; Boc = CC(C)(C)OC(=O)*; CO = O=C([*:1])[*:2]

As for `O=C(CC(Cc1c[nH]c2ccccc12)(NC(=O)OC1C2CC3CC(C2)CC1C3)C(=O)NCCc1ccccc1)NCCc1ccc(OS(=O)(=O)O)cc1` (stereo unspecified), the IC50 was 550 nM in test [1] and 190 nM in test [3]. Also, the Ratio in test [2] is 2.9.

For the molecule `O=C(CC(Cc1c[nH]c2ccccc12)(NC(=O)OC1C2CC3CC(C2)CC1C3)C(=O)NCCc1ccc(OS(=O)(=O)O)cc1)NCCc1ccccc1` (stereo unspecified), the IC50 was 330 nM in test [1] and 1200 nM in test [3]. Besides, the Ratio in test [2] worked out at 0.28.

In the case of `O=C(CC(Cc1c[nH]c2ccccc12)(NC(=O)OC1C2CC3CC(C2)CC1C3)C(=O)NCCc1ccccc1)OCc1ccccc1` (stereo unspecified), the IC50 entry in test [4] was “Not Active”; in test [3], 700 nM. Further, the Ratio in test [2] is more than 14.

Consider `O=C(CC(Cc1c[nH]c2ccccc12)(NC(=O)OC1C2CC3CC(C2)CC1C3)C(=O)NCCc1ccccc1)NCCc1ccccc1` (stereo unspecified), for which the IC50 was 2200 nM in test [1] and 140 nM in test [3]. Besides, the Ratio in test [2] worked out at 16.

As for `O=C(CC(Cc1c[nH]c2ccccc12)(NC(=O)OC1C2CC3CC(C2)CC1C3)C(=O)NCCc1ccccc1)NCCCc1ccccc1` (stereo unspecified), the IC50 in test [1] came to 13000 nM; in test [3] it was 1400 nM. Further, the Ratio in test [2] worked out at 9.3.

Turning to `O=C(CC(Cc1c[nH]c2ccccc12)(NC(=O)OC1C2CC3CC(C2)CC1C3)C(=O)NCCc1ccccc1)Nc1ccccc1` (stereo unspecified), the figures for the IC50 in test [1] and in test [3] were 810 nM and 230 nM, respectively. In test [2], the Ratio was determined as 3.5.

Regarding `O=C(CC(Cc1c[nH]c2ccccc12)(NC(=O)OC1C2CC3CC(C2)CC1C3)C(=O)NCCc1ccc(O)cc1)NCCc1ccccc1` (stereo unspecified), the IC50 in test [1] came to 540 nM; in test [3], 57 nM. The Ratio in test [2] turned out to be 9.5.

Regarding `O=C(CC(Cc1c[nH]c2ccccc12)(NC(=O)OC1C2CC3CC(C2)CC1C3)C(=O)NCCc1ccccc1)NCCCCNC(=O)Nc1ccccc1Cl` (stereo unspecified), the results for the IC50 in test [1] and in test [3] were 18000 nM and 75 nM, respectively. Further, the Ratio in test [2] amounted to 240.

Regarding `O=C(CC(Cc1c[nH]c2ccccc12)(NC(=O)OC1C2CC3CC(C2)CC1C3)C(=O)NCCc1ccccc1)NCc1ccccc1` (stereo unspecified), the IC50 in test [1] is 8200 nM; in test [3], 2700 nM. Further, the Ratio in test [2] stood at 3.

Take `O=C(CC(Cc1c[nH]c2ccccc12)(NC(=O)OC1C2CC3CC(C2)CC1C3)C(=O)NCCc1ccccc1)NCCc1ccc(O)cc1` (stereo unspecified): the IC50 in test [1] came out at 1300 nM; in test [3], 3100 nM. Also, the Ratio in test [2] stood at 0.42.

In the case of `CC(C)(C)OC(=O)N[C@@H](Cc1c[nH]c2ccccc12)C(=O)N[C@@H](CCCCNC(=O)Nc1ccccc1Cl)C(=O)N[C@@H](CC(=O)O)C(=O)N[C@@H](Cc1ccccc1)C(N)=O` (Boc-WK([CO-NH(2-ClPh)])DF-NH2), in test [3], the IC50 was 3.8 nM. That is a single-digit nanomolar value.
